Measurements as given in patent US20090176811A1, “Substituted 5,6,7,8-Tetrahydro-pyrido[4,3-d]pyrimidine-2-yl Compounds and 5,6,7,8-Tetrahydro-quinazoline-2-yl Compounds” (GRUENENTHAL GmbH, priority 2004, published 2009).

How the values were obtained:
mGluR5 receptor = target: T1, mGluR5 receptor (Sus scrofa, UniProt I3LUI7); assay: Affinity for the mGluR5 receptor ([3H]-MPEP binding, pig brain homogenate); conditions: 10 μM compound, 15 nM [3H]-MPEP
T1 construct: 450 μg of protein from brain homogenate is incubated; from tissue; host or cells: pig brain hemispheres without medulla, cerebellum and pons
T1 sequence (I3LUI7 19-1212): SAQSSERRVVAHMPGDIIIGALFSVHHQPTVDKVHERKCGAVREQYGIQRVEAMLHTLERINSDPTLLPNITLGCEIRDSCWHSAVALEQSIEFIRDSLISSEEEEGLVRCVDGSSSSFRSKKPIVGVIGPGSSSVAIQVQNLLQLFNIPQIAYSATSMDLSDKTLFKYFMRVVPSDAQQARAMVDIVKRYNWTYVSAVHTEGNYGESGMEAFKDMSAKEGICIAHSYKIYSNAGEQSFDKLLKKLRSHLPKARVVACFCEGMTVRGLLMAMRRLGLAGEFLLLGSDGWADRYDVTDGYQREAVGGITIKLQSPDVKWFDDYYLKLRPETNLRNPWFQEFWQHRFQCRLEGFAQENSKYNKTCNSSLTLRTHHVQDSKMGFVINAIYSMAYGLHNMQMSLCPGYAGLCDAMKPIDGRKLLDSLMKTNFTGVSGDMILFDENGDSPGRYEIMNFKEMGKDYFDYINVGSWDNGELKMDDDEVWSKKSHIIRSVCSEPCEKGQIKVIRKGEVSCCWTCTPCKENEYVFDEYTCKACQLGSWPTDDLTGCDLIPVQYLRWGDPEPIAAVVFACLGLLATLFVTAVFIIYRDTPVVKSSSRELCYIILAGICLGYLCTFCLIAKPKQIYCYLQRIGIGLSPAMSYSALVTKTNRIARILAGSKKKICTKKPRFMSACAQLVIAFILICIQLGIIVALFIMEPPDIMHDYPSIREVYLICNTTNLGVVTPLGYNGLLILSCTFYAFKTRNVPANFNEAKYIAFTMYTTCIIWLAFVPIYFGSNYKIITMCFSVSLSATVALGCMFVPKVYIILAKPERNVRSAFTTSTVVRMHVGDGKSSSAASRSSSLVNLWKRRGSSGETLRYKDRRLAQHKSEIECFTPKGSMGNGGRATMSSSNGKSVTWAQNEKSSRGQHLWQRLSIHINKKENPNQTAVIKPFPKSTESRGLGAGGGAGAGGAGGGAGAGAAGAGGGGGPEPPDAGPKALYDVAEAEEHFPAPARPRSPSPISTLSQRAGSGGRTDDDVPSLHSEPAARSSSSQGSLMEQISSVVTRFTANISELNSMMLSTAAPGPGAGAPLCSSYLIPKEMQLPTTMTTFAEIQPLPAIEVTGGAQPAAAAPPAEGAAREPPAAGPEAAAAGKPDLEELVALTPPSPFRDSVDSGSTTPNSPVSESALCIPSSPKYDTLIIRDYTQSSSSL
Description: III. Method for Determining Affinity for the mGluR5 Receptor
Pig brain homogenate is produced by homogenisation (Polytron Pt 3000, Kinematica AG, 10,000 rpm (revolutions per minute) for 90 seconds) of pig brain hemispheres without medulla, cerebellum and pons in a buffer of pH 8.0 (30 mM Hepes, Sigma, order number H3375+1 tablet Complete Roche Diagnostics, order number 1836145 made up to 100 ml) in a ratio of 1:20 (brain weight/volume) and differential centrifugation at 900 g and 40,000 g. 450 μg of protein from brain homogenate is incubated in each case in 250 μl incubation batches in 96-well microtitre plates with 15 nM ^3[H]-MPEP (Tocris, order number R1212) and the compounds to be investigated (in each case 10 μM in the test) in the above-stated buffer at room temperature for 60 minutes.
The batches are then filtered with the assistance of a Brandel Cell Harvester (Brandel, Grade Robotic 9600) on Unifilter plates with glass filter mats (Perkin Elmer, order number 6005177) and then rewashed 3 times with buffer of the above-stated composition using 250 μl per sample. The filter plates are then dried for 60 minutes at 55° C. Then 30 μl of Ultima Gold scintillating material (Packard BioScience, order number 6013159) is added per well and after 3 hours the samples are measured using the B counter ([…], Perkin Elmer). Nonspecific binding is determined by the addition of 10 μM 2-methyl-6-(phenylethynyl)-pyridine (Tocris, order number 1212).

5-HT transporter = target: T2, 5-HT transporter (Rattus norvegicus, UniProt P31652); assay: 5-HT uptake inhibition in rat brain synaptosomes (medulla and pons); assay type: biochemical
T2 construct: from tissue; host or cells: rat medulla and pons synaptosomes (P2 fraction)
T2 sequence (P31652 whole entry): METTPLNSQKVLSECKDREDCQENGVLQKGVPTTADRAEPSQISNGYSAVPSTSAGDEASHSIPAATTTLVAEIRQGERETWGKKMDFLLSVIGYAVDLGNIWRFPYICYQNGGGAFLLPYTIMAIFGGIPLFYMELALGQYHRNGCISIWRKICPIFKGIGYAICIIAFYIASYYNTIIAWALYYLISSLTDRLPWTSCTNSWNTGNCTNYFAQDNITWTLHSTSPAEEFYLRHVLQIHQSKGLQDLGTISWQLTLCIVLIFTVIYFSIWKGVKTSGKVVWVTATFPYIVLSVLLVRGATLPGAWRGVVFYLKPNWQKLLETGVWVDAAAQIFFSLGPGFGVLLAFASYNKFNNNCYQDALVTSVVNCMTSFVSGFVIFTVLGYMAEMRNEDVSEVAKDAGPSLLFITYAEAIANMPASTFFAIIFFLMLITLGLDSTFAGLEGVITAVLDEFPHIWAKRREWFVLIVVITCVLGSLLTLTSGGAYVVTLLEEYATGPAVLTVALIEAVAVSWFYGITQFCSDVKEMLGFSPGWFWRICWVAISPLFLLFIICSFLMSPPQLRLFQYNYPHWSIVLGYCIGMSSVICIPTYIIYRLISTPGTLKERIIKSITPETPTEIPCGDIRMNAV
Excerpt: (§1) I. Method for Determining Noradrenalin and 5-HT Uptake Inhibition:
(§2) Synaptosomes from rat brain regions are freshly isolated for in vitro studies, as described in the publication “The isolation of nerve endings from brain” by E. G. Gray and V. P. Whittaker, J. Anatomy 96, pages 79-88, 1962. The corresponding literature description is hereby introduced as a reference and is deemed to be part of the disclosure.
(§3) The tissue (hypothalamus for the determination of noradrenalin uptake inhibition and medulla and pons for the determination of 5-HT uptake inhibition) is homogenised in ice-cooled 0.32 M sucrose (100 mg of tissue/1 mL) in a glass homogeniser with Teflon pestle using five complete up and down strokes at 840 revolutions/minute.
(§4) The homogenate is centrifuged at 4° C. for 10 minutes at 1000 g. After subsequent centrifugation at 17000 g for 55 minutes, the synaptosomes (P2 fraction) are obtained, which are resuspended in 0.32 M […] (0.5 mL/100 mg of original weight).
(§5) The particular uptake is measured in a 96-well microtitre plate. The volume is 250 μl and the incubation proceeds at room temperature (approx. 20-25° C.) under an O2 atmosphere.
(§6) The incubation time is 7.5 minutes for [^3H]-NA and 5 minutes for [^3H]-5-HT.
(§7) The 96 samples are then filtered through a Unifilter GF/B microtitre plate (Packard) and washed with 200 mL of incubated buffer using a “Brabdel MPXRI-96T Cell-Harvester”. The Unifilter GF/B plate is dried for 1 hour at 55° C. The plate is then sealed with a Back seal (Packard) and 35 μl of scintillation fluid are added per well (Ultima Gold, Packard). After sealing with a top seal (Packard) and establishing an equilibrium (around 5 hours), radioactivity is determined in a “Trilux 1450 Microbeta” (Wallac).
(§8) The quantity of protein used in the above determination corresponds to the values known from the literature, as for example described in “Protein measurement with the folin phenol reagent”, Lowry et al., J. Biol. Chem., 193, 265-275, 1951.
(§9) A detailed description of the method may additionally be found in the literature, for example in M. Ch. Frink, H.-H. Hennies, W. Engelberger, M. Haurand and B. Wilffert (1996) Arzneim.-Forsch./Drug Res. 46 (III), 11, 1029-1036.
(§10) The corresponding literature descriptions are hereby introduced in each case as a reference and are deemed to be part of the present disclosure.
(§11) The following characteristics were determined for the NA or 5-HT transporter: […]

NA transporter = target: T3, NA transporter (Rattus norvegicus, UniProt Q63380); assay: Noradrenalin uptake inhibition in rat brain synaptosomes (hypothalamus); assay type: biochemical
T3 construct: from tissue; host or cells: rat hypothalamus synaptosomes (P2 fraction)
T3 sequence (Q63380 1-617): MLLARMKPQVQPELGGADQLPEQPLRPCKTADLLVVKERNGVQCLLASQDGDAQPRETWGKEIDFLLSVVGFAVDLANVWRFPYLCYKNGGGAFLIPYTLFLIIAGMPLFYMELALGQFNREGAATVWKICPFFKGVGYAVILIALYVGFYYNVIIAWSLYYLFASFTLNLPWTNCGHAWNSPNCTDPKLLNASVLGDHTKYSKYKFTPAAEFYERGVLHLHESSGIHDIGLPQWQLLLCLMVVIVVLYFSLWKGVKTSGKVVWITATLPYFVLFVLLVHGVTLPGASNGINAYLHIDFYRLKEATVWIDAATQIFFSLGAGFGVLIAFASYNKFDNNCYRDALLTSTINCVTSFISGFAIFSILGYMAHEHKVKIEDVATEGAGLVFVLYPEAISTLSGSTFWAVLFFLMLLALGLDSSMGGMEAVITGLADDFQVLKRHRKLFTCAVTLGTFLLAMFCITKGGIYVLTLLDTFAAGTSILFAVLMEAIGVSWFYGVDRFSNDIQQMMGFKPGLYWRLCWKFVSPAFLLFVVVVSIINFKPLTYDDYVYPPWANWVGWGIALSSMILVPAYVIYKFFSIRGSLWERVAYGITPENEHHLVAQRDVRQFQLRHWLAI
Excerpt: as §1, §2, §3, §4, §5, §6, §7, §8, §9, §10, §11

Row | Structure (SMILES) | inhibition at 10 µM (mGluR5 receptor) [%] | inhibition at 1 µM (5-HT transporter) [%] | inhibition at 10 µM (NA transporter) [%]
1 | CC(C)(C)c1ccc(C(=O)Nc2ncc3c(n2)CCN(C(=O)c2csc(-c4ccccc4)n2)C3)cc1 [Example 29, 4-tert-butyl-N-[6-(2-phenyl-thiazole-4-carbonyl)-5,6,7,8-tetrahydro-pyrido[4,3-d]pyrimidin-2-yl]-benzamide] | 40.5 |  | 
2 | COc1ccccc1C(=O)Nc1ncc2c(n1)CCN(C(=O)c1cc(-c3ccc(Cl)cc3)oc1C)C2 [Example 78, N-{6-[5-(4-chloro-phenyl)-2-methyl-furan-3-carbonyl]-5,6,7,8-tetrahydro-pyrido[4,3-d]pyrimidin-2-yl}-2-methoxy-benzamide] | 41.1 |  | 
3 | COc1cccc(C(=O)Nc2ncc3c(n2)CCN(S(=O)(=O)c2cc(Br)ccc2OC)C3)c1 [Example 129, N-[6-(5-bromo-2-methoxy-benzenesulfonyl)-5,6,7,8-tetrahydro-pyrido[4,3-d]pyrimidin-2-yl]-3-methoxy-benzamide] | 51.1 |  | 
4 | O=C(Nc1ncc2c(n1)CCN(C(=O)CCC1CCCC1)C2)c1ccncc1 [Example 132, N-[6-(3-cyclopentyl-propionyl)-5,6,7,8-tetrahydro-pyrido[4,3-d]pyrimidin-2-yl]-isonicotinamide] | 58.1 |  | 
5 | O=C(Nc1ncc2c(n1)CCN(S(=O)(=O)c1ccc(OC(F)(F)F)cc1)C2)c1ccc(Cl)c(Cl)c1 [Example 134, 3,4-dichloro-N-[6-(4-trifluoromethoxy-benzenesulfonyl)-5,6,7,8-tetrahydro-pyrido[4,3-d]pyrimidin-2-yl]-benzamide] |  | 58 | 59
6 | CC(C)C(NC(=O)OCC1c2ccccc2-c2ccccc21)C(=O)NC1CCc2nc(NC(=O)c3cccs3)ncc2C1 (stereo not drawn) [Example 139, (2-methyl-1-{2-[(thiophene-2-carbonyl)-amino]-5,6,7,8-tetrahydro-quinazolin-6-ylcarbamoyl}-propyl)-carbamic acid 9H-fluoren-9-ylmethyl ester] | 31 |  | 
7 | O=C(Nc1ncc2c(n1)CCN(C(=O)C1CCc3ccccc3C1)C2)c1cccc(F)c1 (stereo not drawn) [Example 141, 3-fluoro-N-[6-(1,2,3,4-tetrahydro-naphthalene-2-carbonyl)-5,6,7,8-tetrahydro-pyrido[4,3-d]pyrimidin-2-yl]-benzamide] |  | 54 | 55
8 | O=C(Nc1ncc2c(n1)CCN(C(=O)c1ccc(-c3cccs3)cc1)C2)c1cc(Cl)cc(Cl)c1 [Example 144, 3,5-dichloro-N-[6-(4-thiophen-2-yl-benzoyl)-5,6,7,8-tetrahydro-pyrido[4,3-d]pyrimidin-2-yl]-benzamide] |  | 42 | 67
9 | CCOc1ccccc1C(=O)Nc1ncc2c(n1)CCN(C(=O)c1sccc1Cl)C2 [Example 145, N-[6-(3-chloro-thiophene-2-carbonyl)-5,6,7,8-tetrahydro-pyrido[4,3-d]pyrimidin-2-yl]-2-ethoxy-benzamide] | 84.4 |  | 
10 | CCCC(=O)Nc1ncc2c(n1)CCC(NS(=O)(=O)c1cccc(C)c1)C2 (stereo not drawn) [Example 146, N-[6-(toluene-3-sulfonylamino)-5,6,7,8-tetrahydro-quinazolin-2-yl]-butyramide] | 39.6 |  | 
11 | CCc1ccc(C(=O)Nc2ncc3c(n2)CCN(S(=O)(=O)c2ccc4c(c2)CN(C(=O)C(F)(F)F)CC4)C3)cc1 [Example 157, 4-ethyl-N-{6-[2-(2,2,2-trifluoro-acetyl)-1,2,3,4-tetrahydro-isoquinoline-7-sulfonyl]-5,6,7,8-tetrahydro-pyrido[4,3-d]pyrimidin-2-yl}-benzamide] |  | 43 | 61
12 | COc1ccccc1C(=O)Nc1ncc2c(n1)CCN(S(=O)(=O)c1c(C)cc(OC)c(C)c1C)C2 [Example 158, 2-methoxy-N-[6-(4-methoxy-2,3,6-trimethyl-benzenesulfonyl)-5,6,7,8-tetrahydro-pyrido[4,3-d]pyrimidin-2-yl]-benzamide] |  | 55 | 36
13 | O=C(Nc1ncc2c(n1)CCN(C(=O)C1=Cc3ccccc3OC1)C2)c1ccc(F)c(F)c1 [Example 175, N-[6-(2H-chromene-3-carbonyl)-5,6,7,8-tetrahydro-pyrido[4,3-d]pyrimidin-2-yl]-3,4-difluoro-benzamide] |  | 32 | 46
14 | O=C(Nc1ncc2c(n1)CCN(S(=O)(=O)Cc1ccccc1)C2)c1ccc(F)cc1 [Example 178, 4-fluoro-N-(6-phenylmethanesulfonyl-5,6,7,8-tetrahydro-pyrido[4,3-d]pyrimidin-2-yl)-benzamide] | 45.3 |  | 
15 | O=C(CCCCCNC(=O)OCc1ccccc1)NC1CCc2nc(NC(=O)c3ccc(F)cc3)ncc2C1 (stereo not drawn) [Example 181, {5-[2-(4-fluoro-benzoylamino)-5,6,7,8-tetrahydro-quinazolin-6-ylcarbamoyl]-pentyl}-carbamic acid benzyl ester] | 36.4 |  | 
16 | CC(C)(C)c1ccc(C(=O)Nc2ncc3c(n2)CCN(C(=O)c2csc4ccccc24)C3)cc1 [Example 184, N-[6-(benzo[b]thiophene-3-carbonyl)-5,6,7,8-tetrahydro-pyrido[4,3-d]pyrimidin-2-yl]-4-tert-butyl-benzamide] |  | 48 | 69
17 | CC(C)(C)c1ccc(C(=O)Nc2ncc3c(n2)CCN(S(=O)(=O)c2ccc4c(c2)OCCO4)C3)cc1 [Example 186, 4-tert-butyl-N-[6-(2,3-dihydro-benzo[1,4]dioxin-6-sulfonyl)-5,6,7,8-tetrahydro-pyrido[4,3-d]pyrimidin-2-yl]-benzamide] |  | 46 | 82
18 | O=C(Nc1ncc2c(n1)CCN(C(=O)Cc1c(Cl)cccc1Cl)C2)c1cccc(Cl)c1 [Example 187, 3-chloro-N-{6-[2-(2,6-dichloro-phenyl)-acetyl]-5,6,7,8-tetrahydro-pyrido[4,3-d]pyrimidin-2-yl}-benzamide] |  | 29 | 100
19 | O=C(Nc1ncc2c(n1)CCN(C(=O)CCCCc1ccccc1)C2)c1ccccc1 [Example 190, N-[6-(5-phenyl-pentanoyl)-5,6,7,8-tetrahydro-pyrido[4,3-d]pyrimidin-2-yl]-benzamide] |  | 36 | 73
20 | O=C(Nc1ncc2c(n1)CCN(C(=O)c1ccc(OC(F)(F)F)cc1)C2)c1cc(Cl)cc(Cl)c1 [Example 192, 3,5-dichloro-N-[6-(4-trifluoromethoxy-benzoyl)-5,6,7,8-tetrahydro-pyrido[4,3-d]pyrimidin-2-yl]-benzamide] |  | 47 | 73
21 | CC(C)(C)OC(=O)N1CCC(C(=O)NC2CCc3nc(NC(=O)c4ccc(F)cc4)ncc3C2)CC1 (stereo not drawn) [Example 194, 4-[2-(4-fluoro-benzoylamino)-5,6,7,8-tetrahydro-quinazolin-6-ylcarbamoyl]-piperidine-1-carboxylic acid tert-butyl ester] | 45.6 |  | 
22 | Cc1nc(C(F)(F)F)ccc1C(=O)NC1CCc2nc(NC(=O)c3ccc(F)cc3)ncc2C1 (stereo not drawn) [Example 197, N-[2-(4-fluoro-benzoylamino)-5,6,7,8-tetrahydro-quinazolin-6-yl]-2-methyl-6-trifluoromethyl-nicotinamide] | 32.1 |  | 
